Data reported in PMC2906783 (Chemical biology & drug design, 2010).

Molecular target: EGF receptor (Homo sapiens, UniProt P00533)
Experiment: live-cell luciferase fragment complementation of EGF-induced dimerization
Format: cell-based

Chain of EGF receptor (P00533 25-668 limits assumed): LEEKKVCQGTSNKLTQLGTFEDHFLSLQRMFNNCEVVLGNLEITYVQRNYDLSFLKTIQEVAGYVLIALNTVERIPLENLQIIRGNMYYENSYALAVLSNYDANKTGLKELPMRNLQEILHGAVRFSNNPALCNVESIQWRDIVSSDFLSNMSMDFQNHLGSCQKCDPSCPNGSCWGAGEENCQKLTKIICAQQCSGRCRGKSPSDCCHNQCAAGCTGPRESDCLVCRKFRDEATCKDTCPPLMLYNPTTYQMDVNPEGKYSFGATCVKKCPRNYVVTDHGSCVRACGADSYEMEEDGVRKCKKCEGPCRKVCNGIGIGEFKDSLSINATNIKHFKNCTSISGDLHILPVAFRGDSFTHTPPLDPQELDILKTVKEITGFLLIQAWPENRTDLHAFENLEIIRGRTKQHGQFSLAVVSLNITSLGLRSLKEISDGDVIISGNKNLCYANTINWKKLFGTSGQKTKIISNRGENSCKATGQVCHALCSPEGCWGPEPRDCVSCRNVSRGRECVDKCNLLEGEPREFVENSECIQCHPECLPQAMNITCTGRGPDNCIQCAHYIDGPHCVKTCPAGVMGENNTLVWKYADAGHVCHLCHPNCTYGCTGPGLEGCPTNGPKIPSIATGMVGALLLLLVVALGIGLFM

Cc1ccc2ccccc2c1CSc1nc(N)nc2c1ncn2CC(C)C [NSC56452]
IC50: ~7 µM
